# Measured values: the supplement of paper PMC10307832
# Key:
# Assay in all cases: relative viability (nuclei count vs DMSO), 5 days (fraction); higher = more cells survive
# Vorinostat + Palbociclib = compound: O=C(CCCCCCC(=O)Nc1ccccc1)NO [Vorinostat] + CC(=O)c1c(C)c2cnc(Nc3ccc(N4CCNCC4)cn3)nc2n(C2CCCC2)c1=O [Palbociclib] (partner 0.5 µM)
# In short: (§1)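 Nuclei were stained with Hoechst during a one-step fixation (final 0.05% Triton X-100, 1% formaldehyde, 1 ug/ml Hoechst) carried out 5 days after dosing, then counted on 4× images. The cells, lung cancer lines in 1536-well plates, had been dosed by pin tool the day after seeding with one drug alone or a fixed anchor-drug dose plus five library-drug doses (not always all listed) in √10 steps. Relative viability is the nuclei count in treated wells divided by that in vehicle wells, and each value is the median of duplicate plates.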
# Vorinostat + Luminespib = compound: O=C(CCCCCCC(=O)Nc1ccccc1)NO [Vorinostat] + CCNC(=O)c1noc(-c2cc(C(C)C)c(O)cc2O)c1-c1ccc(CN2CCOCC2)cc1 [Luminespib] (partner 0.01 µM)
# In short: as §1
# Vorinostat + Pictilisib = compound: O=C(CCCCCCC(=O)Nc1ccccc1)NO [Vorinostat] + CS(=O)(=O)N1CCN(Cc2cc3nc(-c4cccc5[nH]ncc45)nc(N4CCOCC4)c3s2)CC1 [Pictilisib] (partner 1 µM)
# In short: as §1
# Vorinostat + Phenformin = compound: O=C(CCCCCCC(=O)Nc1ccccc1)NO [Vorinostat] + N=C(N)NC(=N)NCCc1ccccc1 [Phenformin] (partner 250 µM)
# In short: as §1
# Vorinostat + Olaparib = compound: O=C(CCCCCCC(=O)Nc1ccccc1)NO [Vorinostat] + O=C(c1cc(Cc2n[nH]c(=O)c3ccccc23)ccc1F)N1CCN(C(=O)C2CC2)CC1 [Olaparib] (partner 8 µM)
# In short: as §1
Cell Line,relative viability (Vorinostat + Palbociclib; first compound 0.253 µM),relative viability (Vorinostat + Palbociclib; first compound 0.8 µM),relative viability (Vorinostat + Palbociclib; first compound 2.53 µM),relative viability (Vorinostat + Palbociclib; first compound 8 µM),relative viability (Vorinostat + Luminespib; first compound 0.253 µM),relative viability (Vorinostat + Luminespib; first compound 0.8 µM),relative viability (Vorinostat + Luminespib; first compound 2.53 µM),relative viability (Vorinostat + Luminespib; first compound 8 µM),relative viability (Vorinostat + Pictilisib; first compound 0.253 µM),relative viability (Vorinostat + Pictilisib; first compound 0.8 µM),relative viability (Vorinostat + Pictilisib; first compound 2.53 µM),relative viability (Vorinostat + Pictilisib; first compound 8 µM),relative viability (Vorinostat + Phenformin; first compound 0.253 µM),relative viability (Vorinostat + Phenformin; first compound 0.8 µM),relative viability (Vorinostat + Phenformin; first compound 2.53 µM),relative viability (Vorinostat + Phenformin; first compound 8 µM),relative viability (Vorinostat + Olaparib; first compound 0.253 µM),relative viability (Vorinostat + Olaparib; first compound 0.8 µM),relative viability (Vorinostat + Olaparib; first compound 2.53 µM),relative viability (Vorinostat + Olaparib; first compound 8 µM)
HCC-827,0.576,0.506,0.333,0.135,0.655,0.641,0.257,0.168,1.1,1.08,0.732,0.411,0.455,0.521,0.453,0.239,0.776,0.632,0.344,0.15
HCC-78,0.467,0.518,0.438,0.344,,,,,0.25,0.128,0.117,0.134,0.719,0.58,0.292,0.22,0.778,0.615,0.221,0.201
201T,0.363,0.357,0.379,0.242,1.1,1.09,0.82,0.281,0.741,0.605,0.522,0.313,0.478,0.446,0.406,0.236,0.852,0.814,0.523,0.255
LK-2,0.724,0.585,0.104,0.0605,0.207,0.171,0.152,0.132,0.48,0.379,0.211,0.132,0.778,0.321,0.197,0.126,0.705,0.62,0.309,0.0471
NCI-H2342,0.529,0.502,0.58,0.488,0.817,0.589,0.499,0.391,,,,,0.561,0.653,0.573,0.375,0.467,0.496,0.308,0.269
HCC-366,0.345,0.182,0.0412,0.0283,,,,,0.132,0.191,0.0894,0.037,0.689,0.605,0.338,0.0385,0.249,0.116,0.0308,0.0193
HARA,0.32,0.295,0.184,0.133,0.693,0.689,0.118,0.053,0.483,0.447,0.132,0.102,0.443,0.364,0.231,0.0679,0.966,0.454,0.0979,0.0743
COR-L 105,0.402,0.396,0.283,0.284,0.968,0.892,0.646,0.219,0.438,0.261,0.262,0.201,0.609,0.54,0.199,0.234,0.727,0.821,0.589,0.266
NCI-H460,0.146,0.0944,0.0356,0.011,0.0445,0.0295,0.0322,0.0199,0.37,0.279,0.208,0.0481,0.611,0.4,0.0276,0.016,0.396,0.175,0.064,0.0336
HCC-44,0.989,0.969,0.812,0.301,1.23,0.804,0.205,0.141,0.603,0.411,0.308,0.0904,0.147,0.108,0.0733,0.0646,1.04,1.05,0.658,0.317
NCI-H1563,,,,,0.587,0.496,0.433,0.416,0.682,0.637,0.68,0.592,0.771,0.727,0.556,0.492,,,,
NCI-H1650,0.281,0.234,0.164,0.0922,0.2,0.178,0.171,0.184,0.542,0.283,0.181,0.124,0.412,0.393,0.164,0.14,0.737,0.62,0.316,0.16
NCI-H727,0.688,0.633,0.606,0.51,0.25,0.378,0.311,0.341,0.458,0.455,0.243,0.188,0.964,0.395,0.478,0.255,0.682,0.745,0.525,0.401
COR-L23,0.281,0.19,0.0948,0.0728,0.64,0.305,0.107,0.0643,0.728,0.451,0.0944,0.0511,0.368,0.322,0.107,0.0712,0.301,0.246,0.0921,0.0666
NCI-H522,1.2,0.879,0.616,0.252,1.44,0.972,0.361,0.259,,,,,0.728,0.593,0.602,0.252,0.778,0.654,0.318,0.168
NCI-H596,,,,,0.933,1.05,0.476,0.265,0.355,0.357,0.316,0.277,0.838,0.587,0.474,0.272,0.725,0.512,0.326,0.204
NCI-H1993,0.715,0.775,0.499,0.362,0.874,0.831,0.656,0.4,0.911,0.919,0.801,0.589,0.436,0.491,0.588,0.464,0.919,1.02,0.556,0.383
NCI-H2023,0.467,0.375,0.199,0.0512,1.04,0.534,0.188,0.0701,0.221,0.214,0.128,0.0818,0.444,0.442,0.192,0.0722,0.403,0.296,0.113,0.0691

Cell Line,relative viability (Vorinostat + Palbociclib; first compound 0.253 µM),relative viability (Vorinostat + Palbociclib; first compound 0.8 µM),relative viability (Vorinostat + Palbociclib; first compound 2.53 µM),relative viability (Vorinostat + Palbociclib; first compound 8 µM),relative viability (Vorinostat + Luminespib; first compound 0.253 µM),relative viability (Vorinostat + Luminespib; first compound 0.8 µM),relative viability (Vorinostat + Luminespib; first compound 2.53 µM),relative viability (Vorinostat + Luminespib; first compound 8 µM),relative viability (Vorinostat + Pictilisib; first compound 0.253 µM),relative viability (Vorinostat + Pictilisib; first compound 0.8 µM),relative viability (Vorinostat + Pictilisib; first compound 2.53 µM),relative viability (Vorinostat + Pictilisib; first compound 8 µM),relative viability (Vorinostat + Phenformin; first compound 0.253 µM),relative viability (Vorinostat + Phenformin; first compound 0.8 µM),relative viability (Vorinostat + Phenformin; first compound 2.53 µM),relative viability (Vorinostat + Phenformin; first compound 8 µM),relative viability (Vorinostat + Olaparib; first compound 0.253 µM),relative viability (Vorinostat + Olaparib; first compound 0.8 µM),relative viability (Vorinostat + Olaparib; first compound 2.53 µM),relative viability (Vorinostat + Olaparib; first compound 8 µM)
NCI-H3122,0.19,0.254,0.142,0.0743,0.0783,0.0802,0.0456,0.0728,0.667,0.758,0.284,0.177,0.395,0.365,0.0662,0.118,0.543,0.574,0.319,0.0668
NCI-H441,0.241,0.249,0.157,0.101,0.485,0.423,0.194,0.162,0.517,0.448,0.164,0.11,1.1,0.863,0.317,0.169,0.56,0.542,0.17,0.0865
SW 1573,0.433,0.305,0.212,0.0703,0.212,0.381,0.222,0.0808,0.543,0.45,0.24,0.0767,0.613,0.556,0.355,0.0821,0.745,0.399,0.212,0.0539
RERF-LC-KJ,1.09,0.929,0.333,0.211,1.22,0.883,0.308,0.278,0.562,0.474,0.182,0.164,0.453,0.394,0.284,0.288,0.826,0.715,0.228,0.266
NCI-H838,0.262,0.218,0.183,0.116,0.287,0.207,0.199,0.118,0.798,0.675,0.349,0.142,0.95,0.562,0.317,0.139,0.87,0.785,0.222,0.153
HCC-15,0.748,0.688,0.281,0.101,0.526,0.565,0.361,0.148,0.811,0.608,0.472,0.108,0.609,0.473,0.22,0.0895,0.672,0.631,0.35,0.106
SK-LU-1,0.438,0.363,0.32,0.177,0.21,0.234,0.176,0.196,0.595,0.55,0.351,0.133,0.658,0.549,0.285,0.123,0.417,0.399,0.323,0.14
NCI-H1666,0.634,0.576,0.523,0.511,1.16,0.894,0.477,0.339,0.363,0.283,0.206,0.128,0.591,0.474,0.398,0.306,0.669,0.755,0.512,0.475
H3255,0.349,0.337,0.303,0.232,0.743,0.808,0.602,0.315,0.599,0.574,0.318,0.183,0.33,0.302,0.323,0.262,0.588,0.52,0.326,0.222
SK-MES-1,0.377,0.453,0.418,0.222,1.01,0.774,0.423,0.178,0.469,0.349,0.231,0.0945,0.719,0.723,0.517,0.207,0.84,0.774,0.327,0.181
NCI-H2228,0.713,0.431,0.22,0.0631,0.138,0.172,0.168,0.113,0.649,0.223,0.142,0.138,0.388,0.27,0.136,0.102,0.501,0.499,0.223,0.124
ABC-1,0.696,0.563,0.344,0.137,1.19,0.284,0.239,0.187,0.981,0.509,0.168,0.118,0.254,0.307,0.183,0.156,1.02,1.3,0.78,0.196
UMC-11,0.356,0.233,0.179,0.116,1.03,0.566,0.149,0.108,0.975,0.29,0.0923,0.0756,0.325,0.199,0.123,0.115,0.374,0.235,0.0709,0.064
NCI-H1734,0.402,0.34,0.253,0.133,0.24,0.185,0.165,0.0945,0.512,0.49,0.299,0.13,0.501,0.388,0.297,0.0963,0.739,0.66,0.31,0.0928
A549,,,,,,,,,0.601,0.4,0.0772,0.0417,0.17,0.168,0.0474,0.0242,0.278,0.177,0.0609,0.0236
NCI-H1703,,,,,,,,,0.31,0.233,0.363,0.2,,,,,0.407,0.51,0.625,0.157
IA-LM,,,,,,,,,0.309,0.25,0.114,0.0475,,,,,0.911,0.701,0.405,0.0749
